Assays:
[1] = Compound stability in human liver microsomes; format: in vitro ADME; conditions: pH 7.4; for half-life at 5 μM: human liver microsomes 0.5 mg protein/mL, compound 5 μM, NADPH, 37° C., read-out: Human T1/2; for CLint scaled at 5 μM: human liver microsomes, in vivo CLint extrapolated
How it was run: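 LC/MS/MS read-out of parent remaining, as % of t=0, after 0, 5, 10, 15, 30 and 60 min at 37° C. Mix: microsomes 0.5 mg/mL, test compound 5 μM, NADPH 1.0 mM, phosphate pH 7.4. Denatured microsomes served as negative control. In vivo CLint extrapolated.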

[2] = Pharmacokinetics after intravenous and oral administration in rats; format: in vivo; conditions: for Clearance (CL) after iv dosing / AUC(0-t) / half-life / Vd: dose 1 mg/kg, iv dosing; for F: oral bioavailability; for AUC(0-t) / half-life / Vd: rat, plasma; for Vd: read-out: Vss
How it was run: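 Compounds dosed IV at 0.5, 1 or 2 mg/kg and orally at 0.5, 1, 5 or 10 mg/kg in rats, as solution, suspension or capsule formulations. Serial blood sampled out to 24 h and plasma stored frozen. Plasma levels quantified by LC/MS/MS in ESI MRM mode.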

Row | SMILES | half-life at 5 μM [1] [min] | CLint scaled at 5 μM [1] [mL/min/kg] | Clearance (CL) after iv dosing [2] [mL/min/kg] | F [2] [%] | AUC(0-t) [2] [ng·h/mL] | half-life [2] [min] | Vd [2] [L/kg]
1 | CC(C)CS(=O)(=O)N[C@H]1COC2C1OC[C@H]2Nc1nc(Nc2cnn(C)c2)ncc1Cl (stereo partly drawn) [Ex. 2, N-((3S,6R)-6-((5-chloro-2-((1-methyl-1H-pyrazol-4-yl)amino)pyrimidin-4-yl)amino)hexahydrofuro[3,2-b]furan-3-yl)-2-methylpropane-1-sulfonamide] | 37 | 47 | 18.3 | 101.3 | 908 | 69 | 0.63
2 | Cn1cc(Nc2ncc(Cl)c(N[C@@H]3COC4C3OC[C@@H]4NS(=O)(=O)CC(C)(C)C#N)n2)cn1 (stereo partly drawn) [Ex. 26, N-((3S,6R)-6-((5-chloro-2-((1-methyl-1H-pyrazol-4-yl)amino)pyrimidin-4-yl)amino)hexahydrofuro[3,2-b]furan-3-yl)-2-cyano-2-methylpropane-1-sulfonamide] | 33.6 | 51.7 | 37.8 | 62.7 | 442 | 35.4 | 0.75
3 | Cn1cc(Nc2ncc(Cl)c(N[C@@H]3COC4C3OC[C@@H]4NS(=O)(=O)CC(F)(F)F)n2)cn1 (stereo partly drawn) [Ex. 27, N-((3S,6R)-6-((5-chloro-2-((1-methyl-1H-pyrazol-4-yl)amino)pyrimidin-4-yl)amino)hexahydrofuro[3,2-b]furan-3-yl)-2,2,2-trifluoroethanesulfonamide] | 190 | 9.16 | 28.8 | 66.1 | 581 | 62.4 | 0.85
4 | Cn1cc(Nc2ncc(Cl)c(N[C@@H]3COC4C3OC[C@@H]4NS(=O)(=O)CC3CC3)n2)cn1 (stereo partly drawn) [Ex. 25, N-((3S,6R)-6-((5-chloro-2-((1-methyl-1H-pyrazol-4-yl)amino)pyrimidin-4-yl)amino)hexahydrofuro[3,2-b]furan-3-yl)-1-cyclopropylmethanesulfonamide] | 83.4 | 20.8 | 30.3 | 84.2 | 547 | 18 | 0.83
